One experiment has as its system Arc gene expression. In words: Increase of Arc gene expression (Arc mRNA, real-time PCR) in rat striatum and cortex. Type of experiment: in vivo. The settings on record: estimated ED50 on increase of Arc gene expression. How it is done: To investigate potential effects of compounds of the present invention on cortical and striatal NMDA receptor related synaptic signalling, Arc mRNA induction was assessed upon acute administration of a compound of the present invention. […]
Total RNA is prepared by the guanidin isothiocyanate method reported by Chomczynski & Sacchi [Chomczynski P & Sacchi N; Anal. Biochem. 1987 162 156-159]. […] The sample concentration was determined spectrophotometrically by a NanoDrop ND-1000. A quality indicator number and an integrity number of r-RNA were measured with an Experion (Bio-Rad) on random samples. […]
For real-time PCR measurements, 0.7 μl of the cDNA reaction was amplified in a 25 μl reaction mixture containing 1×PCR buffer, 0.2 mM dNTP, 3.7 mM MgCl2, 0.15 mM SYBR green, 0.4 μM of each primer, and 1U JumpStart Taq DNA polymerase. Real-time PCR was measured on CFX96 (Biorad) using the following settings for all genes, 60 s pre-incubation at 95° C., followed by 40 cycles of denaturation at 95° C. for 10 s, annealing at 56° C. for 10 s, and elongation at 72° C. for 10 s.
Initial DNA amounts were quantified by a standard curve constructed for every gene using 6 serial 4-fold dilutions of purified PCR products. […]
Arc gene amounts were normalised using the geometric mean of the amounts of the two house-keeping genes assessed (HPRT and cyclophilin A). […]

The subject of experiment [1] is DOPAC (3,4-dihydroxyphenylacetic acid) in the rat striatum. In words: Increase of DOPAC (3,4-dihydroxyphenylacetic acid) in the rat striatum after systemic administration. The settings on record: sc, estimated ED50 on increase of DOPAC in rat striatum, dose range 0-100 μmol/kg s.c., curve fitting. It is filed as in vivo. From the text:
The increased turnover of dopamine in the terminal areas of the ascending dopaminergic projections of the mammalian brain can be illustrated by measuring of changes in biochemical indices in the brain with the characteristic features of dopamine antagonists, e.g. producing increases in concentrations of dopamine metabolites such as 3,4-dihydroxyphenyl-acetic acid (DOPAC) in the striatum.
After the behavioural activity sessions, the rats are decapitated and their brains rapidly taken out and put on an ice-cold petri-dish. The limbic forebrain, the striatum, the frontal cortex and the remaining hemispheral parts of each rat are dissected and frozen. Each brain part is subsequently analyzed with respect to its content of monoamines and their metabolites.
The monoamine transmitter substances (NA (noradrenaline), DA (dopamine), 5-HT (serotonin)) as well as their amine (NM (normethanephrine), 3-MT (3-methoxytyramine)) and acid (DOPAC (3,4-dihydroxyphenylacetic acid), 5-HIAA (5-hydroxyindoleacetic acid), HVA (homovanillic acid)) metabolites are quantified in brain tissue homogenates by HPLC separations and electrochemical detection
The analytical method is based on two chromatographic separations dedicated for amines or acids. Two chromatographic systems share a common auto injector with a 10-port valve and two sample loops for simultaneous injection on the two systems. Both systems are equipped with a reverse phase column (Luna C18(2), dp 3 μm, 50×2 mm i.d., Phenomenex) and electrochemical detection is accomplished at two potentials on glassy carbon electrodes (MF-1000, Bioanalytical Systems, Inc.). The column effluent is passed via a T-connection to the detection cell or to a waste outlet. This is accomplished by two solenoid valves, which block either the waste or detector outlet. By preventing the chromatographic front from reaching the detector, better detection conditions are achieved. The aqueous mobile phase (0.4 ml/min) for the acid system contains citric acid 14 mM, sodium citrate 10 mM, MeOH 15% (v/v) and EDTA 0.1 mM. Detection potentials relative to Ag/AgCl reference are 0.45 and 0.60V. […] Detection potentials relative to Ag/AgCl reference are 0.45 and 0.65V.
ED50 value for the increase of DOPAC in striatum is calculated by curve fitting. The evaluation is based on 40 animals over the dose range 0, 3.7, 11, 33 and 100 μmol/kg s.c. in two combined experiments. The DOPAC levels are normalised to control and fitted by least square minimization to the function “End-(End-Control)/(1+(dose/ED50)^slope)”. The four parameters (Control, End, ED50 and Slope) are fitted with the restrictions: ED50>0, 0.5<Slope<3, 350<End<400% of control. To estimate confidence levels for the parameters, the fit is repeated 100 times with a random evenly distributed squared weight (0 to 1) for every measurement value. Presented ED50-ranges cover 95% of these values.

Each structure is given as a SMILES string. Where only a bound is given, the exact number is not on record here.

For `CCCNCCOc1cc(F)cc(S(C)(=O)=O)c1` [Example 1, N-[2-(3-fluoro-5-methylsulfonyl-phenoxy)ethyl]propan-1-amine], the ED50 in the experiment with Arc gene expression (rat (prefrontal) cortex, evaluated to be below the lowest dose) was less than 11 µmol/kg; in the experiment with Arc gene expression (sc, rat striatum, systemic administration, 0-100 μmol/kg s.c.) it was 13 µmol/kg; in experiment [1] it was 8.5 µmol/kg.

These data come from patent publication US9120728B2, “Modulators of cortical dopaminergic- and NMDA-receptor-mediated glutamatergic neurotransmission” (INTEGRATIVE RESEARCH LABORATORIES SWEDEN AB, priority 2011, dated 2015).
